The text below walks through data of patent US12059682B2, “Method for isolation and morphological analysis of cells” (EzDiaTech Inc., priority 2018, dated 2024).

The subject of assay [1] is Escherichia coli (E. coli) ATCC 25922. In words: Rapid antibiotic susceptibility test with microwell-patterned hydrogel in 96 well plate, time-lapse imaging. The class given is cell-based. The procedure: (§1) FIG. 2 is a schematic diagram illustrating a technique for dissociating cell colonies into cells at the level of individual cells and continuously observing the morphological changes of the isolated single cells by utilizing a hydrogel structure according to one embodiment of the present disclosure. Referring to (a) of FIG. 2, a conventional 96 well plate is prepared, and thereafter, a dried microwell-patterned hydrogel is inserted into each well. Referring next to (b) of FIG. 2, a cell culture medium containing bacterial cells, nutrients and antibiotics is introduced into each well containing the dry microwell-patterned hydrogel. At the initial stage of introduction, the bottom microwells of the microwell-patterned hydrogel are not yet seated on the base of the well and the microwell-patterned hydrogel is slightly floating. Thus, the bacterial cells are free to move in and out of each microwell pattern.
(§2) Referring to (c) of FIG. 2, several or tens of minutes after the introduction, the microwell-patterned hydrogel swells and approaches the inner wall of the well. As a result, the top of the microwell-patterned hydrogel is in close contact with the inner sidewall of the well and the bottom of the microwell-patterned hydrogel is seated on and remains attached to the base of the well. At this time, the individual bacterial cell entering the space of each bottom microwell pattern of the microwell-patterned hydrogel is not free to move any further in and out of the microwell pattern and is isolated in the microwell-patterned area due to the pressure of the swollen hydrogel. In a state in which the hydrogel is fully expanded, continuous bacterial morphological changes can be observed after several hours by time-lapse imaging through an objective lens of the optical measurement system. As a result, time-lapse images of the individual bacterial cells can be obtained.
(§3) In the case of the Streptomyces atratus (spore-type actinomycetes) cultures, the final cell concentration of the wells was controlled at 7.5×10^7 CFU/mL with tryptic soy broth (TSB, Sparks, MD) and growth was at 28° C. […] After that, 227.5 μL (91% v/v) of Mueller-Hinton broth (MHB, Fluka Analytical), 2.5 μL (1% v/v) of the antibiotics, and 20 μL (8% v/v) of bacterial cells were mixed and growth was monitored at 37° C.
(§4) In this example, the Clinical Laboratory Standard Institute (CLSI) standard strains, Escherichia coli (E. coli) ATCC 25922 and Staphylococcus aureus (S. aureus) ATCC 29213 were tested with various concentrations of ampicillin and chloramphenicol to determine the minimum inhibitory concentration (MIC) values of the antibiotics. […] The cell growth images were recorded every hour for four hours to observe the change in cell number and morphological change to indicate growth.

Assay [2] concerns Staphylococcus aureus (S. aureus) ATCC 29213. The description is as above. The class given is cell-based. The procedure: as §1, §2, §3, §4
Another assay relates to E. coli ATCC 25922. The settings on record: cited from earlier work.
The test system of the next assay is S. aureus ATCC 29213. The settings on record: cited from earlier work.
Assay [3] relates to methicillin-resistant Staphylococcus aureus (MRSA). Put plainly: Rapid antibiotic susceptibility test with microwell-patterned hydrogel structures, running time 4 hours. The class given is cell-based. The settings on record: rapid method, running time 4 hours, read-out: minimum inhibitory concentration (MIC). Here is the method:
In the case of the Streptomyces atratus (spore-type actinomycetes) cultures, the final cell concentration of the wells was controlled at 7.5×10^7 CFU/mL with tryptic soy broth (TSB, Sparks, MD) and growth was at 28° C. For the E. coli ATCC 25922, Staphylococcus aureus ATCC 29213, and methicillin resistant Staphylococcus aureus cultures, the initial concentration of bacterial cells injected into each well was set to 3×10^8 CFU/mL with Mueller-Hinton broth (MHB, Fluka Analytical). In order to adjust the concentration of antibiotics, ampicillin (Sigma-Aldrich) and chloramphenicol (Sigma-Aldrich), a two-fold serial dilution method was used. After that, 227.5 μL (91% v/v) of Mueller-Hinton broth (MHB, Fluka Analytical), 2.5 μL (1% v/v) of the antibiotics, and 20 μL (8% v/v) of bacterial cells were mixed and growth was monitored at 37° C.

Assay [4] has the same test system. Put plainly: Conventional antibiotic susceptibility test using turbidity, running time 18-24 hours. Type of assay: cell-based. The settings on record: conventional method using turbidity, running time 18-24 hours, read-out: minimum inhibitory concentration (MIC). From the text: Although numerous AST approaches have been studied, molecular and cell culturing systems are typical. The molecular AST method can obtain results quickly, in just a few hours, but can be adopted only in restrictive conditions with analytical equipment such as PCR machine and requires much more research to be used widely in clinical applications. In contrast with the molecular method, the cell culturing system is accurate and most used in the clinical arena, so it is regarded as the standard AST system. The most commonly employed AST process in the cell culturing system is the liquid microdilution method. This traditional AST system requires 18˜24 hours because the liquid microdilution method determines the minimum inhibitory concentration (MIC) of the relevant antibiotics by identifying a change in turbidity of culture wells. The turbidity is indirectly measured by optical density (OD) coming from cell growth, which is proportional to the concentration of the bacterial cells in the culture well. However, the OD evaluation is not sensitive to the bacterial cell population expansion when the concentration of the bacterial cells is conspicuously low. Thus, it needs 18-24 hours to accurately distinguish whether the bacterial cells grow or not under particular concentrations of antibiotics.

Values after ≈ are worked out from the molar mass of the structure shown. Some results are limits rather than exact numbers.

`O=C(N[C@H](CO)[C@H](O)c1ccc([N+](=O)[O-])cc1)C(Cl)Cl` [chloramphenicol]: the MIC is 8 µg/mL (≈ 24.8 µM) in assay [1] (Escherichia coli, ATCC25922, 4 h, E. coli ATCC 25922, hydrogel device, images every hour for four hours, 37° C., read-out: minimum inhibitory concentration (MIC)) and 4 µg/mL (≈ 12.4 µM) in assay [2] (Staphylococcus aureus, ATCC29213, 4 h, S. aureus ATCC 29213, hydrogel device, images every hour for four hours, 37° C., read-out: minimum inhibitory concentration (MIC)). The “CLSI minimum inhibitory concentration (MIC) range” value in the assay on E. coli ATCC 25922 and in the assay on S. aureus ATCC 29213 was 2 to 8 µg/mL throughout.
Regarding `CC1(C)S[C@@H]2[C@H](NC(=O)[C@H](N)c3ccccc3)C(=O)N2[C@H]1C(=O)O` [ampicillin], the “concentration at which cells could not divide and showed filamentary growth” value in assay [1] (E. coli, optical microscopic images, FIG. 8 (a)) was no less than 2 µg/mL. Besides, the “concentration at which bacterial cells could not divide or grow” value in assay [2] (S. aureus, optical microscopic images, FIG. 8 (b)) was no less than 2 µg/mL. In addition, the MIC in assay [3] and in assay [4] was 64 µg/mL (≈ 183 µM) throughout. Also, the “CLSI minimum inhibitory concentration (MIC) range” value was 2 to 8 µg/mL in the assay on E. coli ATCC 25922 and 0.5 to 2 µg/mL with S. aureus ATCC 29213.
